Source: patent EP2628734A2, “5-AMINO-1,2,4-THIADIAZOLE DERIVATIVES” (Federalnoe Gosudarstvennoe Bydzhetnoe Uchrezhdenie Nauki …, priority 2010, dated 2012)

System: P2 synaptosomal fraction from rat brain cortex
Experiment: glutamate-induced uptake of 45Ca2+ isotope into synaptosomes
Assay type: cell-based
Text: Neuroprotective action of new compounds was studied in P2 synaptosomal fraction from rat brain cortex. 5-amino-3-(2-nitroxypropyl)-1,2,4-thiadiazole derivatives were studied in the test on glutamate-induced uptake of ^45Ca^2+ isotope into synaptosomes.

For `CC(Cc1nsc(N2CCN(c3ccccn3)CC2)n1)O[N+](=O)[O-]` (centres unmarked) [1-[3-(2-Nitroxypropyl)-[1,2,4]-thiadiazol-5-yl]-4-pyridin-2-yl-piperazine], the IC50 (glutamate-induced uptake of ^45Ca^2+ into synaptosomes) was 16.6 µM and the inhibition at 100 µM (glutamate-induced uptake, concentration of 100 µM, read-out: inhibition of the uptake of ^45Ca^2+ into synaptosomes vs. a control) was 98%.
